Reference: US6846921B2, “Chimeric antisense oligonucleotides and cell transfecting formulations thereof” (Chiron Corporation, priority 1999, dated 2005)
{5'-OMe-dT} = O-methyl thymidine blocking nucleotide (W), phosphodiester-linked; {3'-3'N} = to-3' linked nucleotide blocking group (Z), phosphodiester-linked; d = 2'-deoxy (DNA); m = 2'-O-methyl

Columns and labels:
[1] = system: AKT1 mRNA; assay: AKT1 mRNA knockout after transfection of chimeric antisense oligonucleotide; assay type: cell-based, human; details: HT1080 cells
Procedure: (§1) With the exception of the mTyr oligo (SEQ ID NO: 17-18), which was transfected into B16 melanoma cells, all oligos shown in Table 1 were transfected into HT1080 cells, using “Lipitoid 1” (see below) for transfection, and incubated for 24 hours. The table gives the approximate level of mRNA knockout observed in each case.
The same oligos were also delivered by commercial lipids (Effectene™) and peptoids ((NaeNmpeNmpe)3).
(§2) For each transfection mixture, a carrier molecule, preferably a lipitoid or cholesteroid, was prepared to a working concentration of 0.5 mM in water, sonicated to yield a uniform solution, and filtered through a 0.45 μm PVDF membrane. […]
(§3) The level of target mRNA was quantitated using the Roche LightCycler™ real-time PCR machine. […]
(§4) An amplification mixture was prepared by mixing in the following order: 1×PCR buffer II, 3 mM MgCl2, 140 μM each dNTP, 0.175 pmol each oligo, 1:50,000 dil of SYBR® Green, 0.25 mg/ml BSA, 1 unit Taq polymerase, and H2O to 20 μl. (PCR buffer II is available in 10×concentration from Perkin-Elmer (Norwalk, Conn.). In 1×concentration it contains 10 mM Tris pH 8.3 and 50 mM KCl. SYBR® Green (Molecular Probes, Eugene, Oreg.) is a dye which fluoresces when bound to double stranded DNA. As double stranded PCR product is produced during amplification, the fluorescence from SYBR® Green increases.) […]

[2] = system: CHK1 mRNA; assay: CHK1 mRNA knockout after transfection of chimeric antisense oligonucleotide; assay type: cell-based, human
Procedure: Antisense chimeric oligonucleotides based on the formula above, having sequences directed against AKT1 (SEQ ID NO: 1) or AKT2 (SEQ ID NO: 2), were prepared as described in Example 1. The oligonucleotides also included a 5′-terminal 5′-O-methyl thymidine, as indicated by the formula above. In these oligonucleotides, X^1 and X^2 were seven-base blocks of 2′-O-methyl PO RNA, Y is PS DNA, Z was a 3′-to-3′ linked nucleotide, and W was a 5′-O-methyl thymidine. Both Z and W were linked to the respective X blocks via phosphodiester linkages. […] FIGS. 5 and 6 show levels of endogenous AKT1 mRNA in colon cancer cells and HT1080 cells, respectively, transfected with anti-AKT1 chimeric oligonucleotides (SEQ ID NO: 1). […]
as §3, §4

[3] = system: CK1E mRNA; assay: CK1E mRNA knockout after transfection of chimeric antisense oligonucleotide; assay type: cell-based, human; details: HT1080 cells, Lipitoid 1 for transfection, incubated 24 hours, approximate level
Procedure: as §1
as §2, with “membrane. The antisense oligonucleotide was prepared to a working concentration of 100 μM in sterile Millipore water.” for “membrane.”
as §3, §4

[4] = system: E1AF mRNA; assay: E1AF mRNA knockout after transfection of chimeric antisense oligonucleotide; assay type: cell-based, human; details: HT1080 cells, Lipitoid 1 for transfection, incubated 24 hours, approximate level
Procedure: as §1
as §2, with “membrane. The antisense oligonucleotide was prepared to a working concentration of 100 μM in sterile Millipore water.” for “membrane.”
as §3, §4

[5] = system: IGFR1 mRNA; assay: IGFR1 mRNA knockout after transfection of chimeric antisense oligonucleotide; assay type: cell-based, human; details: HT1080 cells, Lipitoid 1 for transfection, incubated 24 hours, approximate level
Procedure: as §1
as §2, with “membrane. The antisense oligonucleotide was prepared to a working concentration of 100 μM in sterile Millipore water.” for “membrane.”
as §3, §4

[6] = system: ILK mRNA; assay: ILK mRNA knockout after transfection of chimeric antisense oligonucleotide; assay type: cell-based, human; details: HT1080 cells, Lipitoid 1 for transfection, incubated 24 hours, approximate level
Procedure: as §1
as §2, with “membrane. The antisense oligonucleotide was prepared to a working concentration of 100 μM in sterile Millipore water.” for “membrane.”
as §3, §4

[7] = system: KRAS mRNA; assay: KRAS mRNA knockout after transfection of chimeric antisense oligonucleotide; assay type: cell-based, human; details: HT1080 cells, Lipitoid 1 for transfection, incubated 24 hours, approximate level
Procedure: as §1
as §2, with “membrane. The antisense oligonucleotide was prepared to a working concentration of 100 μM in sterile Millipore water.” for “membrane.”
as §3, §4

[8] = system: G2 cell cycle checkpoint control; assay: chk1 function (G2 cell cycle checkpoint control) after antisense transfection; assay type: cell-based, human; details: hCHK1 antisense, transfected cells
[9] = system: chk1 kinase; assay: chk1 kinase activity after antisense transfection; assay type: cell-based, human; details: hCHK1 antisense, transfected cells
[10] = system: Lovo colon cancer cells; assay: 4 day cell proliferation assay after transfection, Lovo; assay type: cell-based; details: 4 day assay, 50-300 nM reverse control PDK1 oligo, compared with Lipitoids 1 and 2
Procedure: (§5) (Again, reverse control PDK1 chimeric oligonucleotides, expected to be non-active, were used.). […] This effect is not limited to this cell type, and was also observed in proliferation assays of Km12L4 colon cancer cells (FIG. 6) and Colo320DM colon cancer cells (FIG. 7).
(§6) Cells were seeded into 96 well plates at a density of 5000 cells per well. For a 4 day proliferation assay, 5 independent 96 well plates were prepared, one for each day. After overnight incubation, cells were transfected using the procedure described above. On each day of the proliferation assay, all medium was removed from one plate and frozen at −70° C. On day four, all plates were developed with the Quantos™ assay kit (Stratagene, La Jolla, Calif.) which determines the amount of DNA, and thus the number of cells, in each well.

[11] = system: Colo320DM colon cancer cells; assay: Cell proliferation assay after transfection, Colo320DM; assay type: cell-based; details: compared with Lipitoids 1 and 2
Procedure: as §5, §6

[12] = system: AKT1 mRNA; assay: AKT1 mRNA knockout in colon cancer cell line (Lovo) with different carriers; assay type: cell-based; details: Lovo cells; delivery of chimeric anti-AKT1 oligo
Procedure: For each transfection mixture, a carrier molecule, preferably a lipitoid or cholesteroid, was prepared to a working concentration of 0.5 mM in water, sonicated to yield a uniform solution, and filtered through a 0.45 μm PVDF membrane. The antisense oligonucleotide was prepared to a working concentration of 100 μM in sterile Millipore water.
The oligonucleotide was diluted in OptiMEM™ (Gibco/BRL), in a microfuge tube, to 2 μM, or approximately 20 μg oligo/ml of OptiMEM™. In a separate microfuge tube, lipitoid or cholesteroid, typically in the amount of about 1.5-2 nmol lipitoid/μg antisense oligonucleotide, was diluted into the same volume of OptiMEMTm used to dilute the oligonucleotide. The diluted antisense oligonucleotide was immediately added to the diluted lipitoid and mixed by pipetting up and down.
Cells were plated on tissue culture dishes one day in advance of transfection, in growth media with serum, to yield a density at transfection of 60-90%. The oligonucleotide/lipitoid mixture was added to the cells, immediately after mixing, to a final concentration of 100-300 nM antisense oligonucleotide. Cells were incubated with the transfection mixture at 37° C., 5% CO2 for 4-24 hours. After incubation, the transfection mixture was removed and replaced with normal growth media with serum.
as §3

[13] = system: human fibrosarcoma (HT1080) cells; assay: Delivery of FITC-labeled chimeric oligonucleotides, fluorescence analysis; assay type: cell-based
Excerpt: One method of delivery involves the use of transfection agents known as “lipitoids” and “cholesteroids”, described, for example, in co-owned PCT publications WO 98/06437 and WO 99/08711 (Zuckermann et al.), based on U.S. Ser. Nos. 60/023,867, 60/054,743, and 09/132,808, which are hereby incorporated by reference. These lipid-cationic peptoid conjugates are shown in these references to be effective reagents for the delivery of plasmid DNA to cells in vitro. It is shown herein that such compounds efficiently deliver oligonucleotides into a variety of primary and tumor cell lines. The efficiency of delivery was assessed by fluorescence analysis of FITC-labeled oligonucleotides, or by monitoring mRNA levels after transfection of chimeric antisense oligonucleotides, as described further below.
The extent of delivery of FITC-labeled chimeric oligonucleotides into human fibrosarcoma (HT1080) cells was assessed via fluorescence analysis. (All oligonucleotides used in the subsequent studies were chimeric oligonucleotides as described for the studies represented in Table 1.) The sequence of the oligonucleotides was the reverse control of PDK1 (SEQ ID NO: 25, the reverse of SEQ ID NO: 23) so that the effect of the oligonucleotides on the cells would be minimal. The oligonucleotides were transfected via complexation with (a) a commercially available transfection agent, Effectene™, (b) the peptoid (NaeNmpeNmpe)3 (peptoid 1), (c) Lipitoid 1, in a 1:4 charge ratio of oligo to lipitoid, and (d) Lipitoid 1, in a 1:3 charge ratio.

[14] = oligo SEQ ID NO: 25, in comparison to Effectene

Substance: 1 (CCATAGTGAGGTTGCATCTGGTGCC; antisense; sugars from the 5' end m7 d11 m7, 5' {5'-OMe-dT}, 3' {3'-3'N}, backbone and T or U not given here; 2'-OMe blocks are phosphodiester, DNA gap is phosphorothioate) [compound 1]
- mRNA knockout ([1]; AKT1, Lipitoid 1 for transfection, incubated 24 hours, approximate level): >90%

Substance: 3 (CCCAGAGCCGATGGTCCGATCATGT; antisense; sugars from the 5' end m7 d11 m7, 5' {5'-OMe-dT}, 3' {3'-3'N}, backbone and T or U not given here; 2'-OMe blocks are phosphodiester, DNA gap is phosphorothioate) [compound 3]
- mRNA knockout ([2]; CHK1, HT1080 cells, Lipitoid 1 for transfection, incubated 24 hours, approximate level): >90%

Substance: 6 (AGCGGCAGAAGTTGAGGTATGTTGA; antisense; sugars from the 5' end m7 d11 m7, 5' {5'-OMe-dT}, 3' {3'-3'N}, backbone and T or U not given here; 2'-OMe blocks are phosphodiester, DNA gap is phosphorothioate) [compound 6]
- mRNA knockout [3]: >80%

Substance: 7 (CCTGCCAGTATGAAGTTGGGAAGCG; antisense; sugars from the 5' end m7 d11 m7, 5' {5'-OMe-dT}, 3' {3'-3'N}, backbone and T or U not given here; 2'-OMe blocks are phosphodiester, DNA gap is phosphorothioate) [compound 7]
- mRNA knockout [4]: >90%

Substance: 9 (TCTTCCTCACAGACCTTCGGGCAAG; antisense; sugars from the 5' end m7 d11 m7, 5' {5'-OMe-dT}, 3' {3'-3'N}, backbone and T or U not given here; 2'-OMe blocks are phosphodiester, DNA gap is phosphorothioate) [compound 9]
- mRNA knockout [5]: > 80%

Substance: 11 (GTGTTTGTTCAGGGTTCCATTTCGG; antisense; sugars from the 5' end m7 d11 m7, 5' {5'-OMe-dT}, 3' {3'-3'N}, backbone and T or U not given here; 2'-OMe blocks are phosphodiester, DNA gap is phosphorothioate) [compound 11]
- mRNA knockout [6]: >90%

Substance: 12 (GCATGTGGAAGGTAGGGAGGCAAGA; antisense; sugars from the 5' end m7 d11 m7, 5' {5'-OMe-dT}, 3' {3'-3'N}, backbone and T or U not given here; 2'-OMe blocks are phosphodiester, DNA gap is phosphorothioate) [compound 12]
- mRNA knockout [7]: >85%

Substance: CCATAGTGAGGTTGCATCTGGTGCC (chimeric modifications, further chemistry not given here) [SEQ ID NO: 1, chimeric antisense oligonucleotide directed against AKT1]
- reduction in endogenous AKT1 mRNA level (FIG. 3) ([1]; L1-transfected, versus control oligos and delivery by Effectene or peptoid (NaeNmpeNmpe)3): most pronounced reduction

Substance: CCCAGAGCCGATGGTCCGATCATGT (sugars from the 5' end m7 d11 m7, 5' {5'-OMe-dT}, 3' {3'-3'N}, backbone and T or U not given here; 2'-OMe blocks are phosphodiester, DNA gap is phosphorothioate) [SEQ ID NO: 3, chimeric antisense oligonucleotide directed against hCHK1]
- chk1 function (G2 cell cycle checkpoint control) [8]: loss of chk1 function
- degradation of endogenous mRNA ([2]; hCHK1 antisense, transfected cells): degradation of endogenous mRNA
- chk1 kinase activity [9]: loss of chk1 kinase activity

Substance: Chol-Ahx-(NaeNmpeNmpe)3 [Cholesteroid 2]
- proliferation and viability following oligonucleotide transfection (FIG. 5) [10]: significant increase in proliferation and viability
- proliferation following oligonucleotide transfection (FIG. 7) [11]: also observed

Substance: Chol-β-ala-(NaeNiaNia)3 [Cholesteroid 3]
- proliferation and viability following oligonucleotide transfection (FIG. 5) [10]: significant increase in proliferation and viability
- proliferation following oligonucleotide transfection (FIG. 7) [11]: also observed

Substance: Chol-β-ala-(NaeNmpeNmpe)3 [Cholesteroid 1]
- AKT1 mRNA knockout by carrier (FIG. 4) [12]: better AKT1 mRNA knockout than delivery by Lipitoid 1 or Lipitoid 2

Substance: DMPE(NaeNmpeNmpe)3 [Lipitoid 1]
- delivery effectiveness by charge ratio ([13]; 1:4 charge ratio of oligo to lipitoid versus 1:3): more effective than the 1:3 ratio
- nuclear delivery of the oligonucleotide [13, 14]: higher degree of nuclear delivery
- transfection efficiency of FITC-labeled oligonucleotide [13, 14]: significantly higher transfection efficiency
